# According to patent US20060123501A1, “Method for treating inflammatory disorders” (priority 2004, published 2006):
# Legend:
# splenic B cells = assay: Proliferation of splenic B cells cultured with LPS; format: cell-based, mouse; conditions: cIAP2−/− splenic B cells; LPS 0.1 to 100 μg/ml
# Procedure: Spleen- and peritoneal-derived macrophage cell count numbers are shown (A) for cIAP2^−/−, cIAP2^+/− and cIAP2^+/+ mice (n=10). Both cIAP2^−/− and littermate control-derived macrophages stained for the LPS binding surface receptor CD14 (B). The proliferation of B cells for cIAP2^−/− mice and littermate controls of cIAP2^+/+ after culturing with the indicated range of LPS doses (n=6) (C). Cultured macrophages from cIAP2^−/− or littermate control cIAP2^+/+ mice were exposed to LPS for 10 h and subsequently IL-1β (D) or TNF-α (E) levels were measured by ELISA (n=6). Additionally, macrophages were exposed to the indicated range of LPS doses for 24 h and IL-1β (F) or TNF-α (G) levels were determined (n=6). Results are mean±s.d. in triplicate per mouse, P<0.01
# This dysfunction may be correlated to a reduced initial number of macrophages, to a block in the LPS-induced signaling pathway, or to an increased apoptotic susceptibility of the cIAP2^−/− macrophages. […] The cIAP2^−/− mice and wild-type macrophages also stained similarly for the LPS-binding receptor, CD14 (FIG. 4B).
# [1] = system: peritoneal-derived macrophages; assay: Fas-induced death of peritoneal macrophages with or without LPS pre-treatment (TUNEL); format: cell-based, mouse; conditions: LPS 10 μg/ml, 4 h, α-Fas antibody 20 μg/ml
# Procedure: Peritoneal-derived macrophages from cIAP2^−/− (lower panels) and cIAP2^+/+ mice (upper panels) were either pre-treated with LPS for 4 h or not pre-treated prior to exposure to α-Fas antibody and then TUNEL stained to assess cell viability (A). Percentages of viable cells (n=5, average of triplicate wells per mouse, P values were <0.01) are shown within each TUNEL stained panel along with the standard deviation. cIAP2^−/−-derived (open shapes) and cIAP2^+/+-derived (solid shapes) T cells were pre-incubated with a range of IL-7 concentrations and then exposed to dexamethasone and T cell survival was monitored over a 12 h period (B) (n=3, average of triplicate wells per mouse, results are mean±s.d., P values at the 12 h point were <0.05). Peritoneal-derived cell numbers are shown for macrophages of cIAP2^−/− mice and littermate control cIAP2^+/+ mice injected i.p. with LPS(C). […]
# Confluent primary cultures of peritoneal-derived macrophages were either pre-treated with LPS (10 μg/ml, 4 h) or not pre-treated prior to exposure to α-Fas antibody (20 μg/ml, clone Jo2) and then TUNEL stained (Roche) to assess cell viability. Primary cultures of spleen derived T cells were pre-incubated with a range of IL-7 concentrations (0, 5, and 10 ng/ml) and then exposed to dexamethasone (100 nM) and T cell survival was monitored over a 12 h period.
substance,measurement,setting,value
lipopolysaccharide [LPS],B cell proliferation in response to LPS,splenic B cells,proliferated normally
same,Resistance to Fas-mediated killing with or without pre-exposure to LPS,[1]; cIAP2−/− macrophages,displayed no difference
same,Resistance to Fas-induced death after LPS pre-treatment,[1]; wild-type macrophages,showed the expected resistance to Fas-induced death
